Experimental data as given in article PMC6155683, “Pharmacokinetics Studies of 12 Alkaloids in Rat Plasma after Oral Administration of Zuojin and Fan-Zuojin Formulas” (Molecules : A Journal of Synthetic Chemistry and Natural …, 2017).
Read-outs that look alike come from different tables or passages of the source.

What was measured:
[1] = PK study of the 12 alkaloids in rat plasma after oral administration of ZJ and FZJ extract (LC–MS/MS); type: in vivo; conditions: for AUC(0-t) / AUC(0-inf) / Cmax / MRT last / MRT inf / half-life / Tmax / Tsec (time of the secondary peak in C–T curve) / Csec (drug concentration of the secondary peak in C–T curve): rat plasma; for AUC(0-t) / AUC(0-inf) / Cmax / MRT last / MRT inf / half-life / Csec (drug concentration of the secondary peak in C–T curve): mean ± SD, n = 6; for AUC(0-t): read-out: AUC0→t; for AUC(0-inf): read-out: AUC0→∞; for Cmax: read-out: Cmax; for MRT last: read-out: MRT0→t (converted); for MRT inf: read-out: MRT0→∞ (converted); for half-life: read-out: t1/2; for Tmax: read-out: Tmax (converted)
Protocol: The time schedule included 15 time-points and six rats were sampled at each time-point. All the rats were orally administered with ZJ extract (suspended in water) at a dose of 3.38 g/kg body weight (dosages of the 12 alkaloids were shown in Table S4), equivalent to crude drug dose of 12 g/kg body weight. Blood samples were collected from the suborbital vein of the rats at 10, 20, 30, 60, 90, 120, 180, 240, 300, 330, 360, 480, 720, 1440, 2160 min after administration, and centrifuged immediately at 5000 rpm for 10 min. The plasma samples were stored at −20 °C until analysis.
Similarly, the time schedule of other rats included 15 time-points and six rats were orally administered with FZJ extract at a dose of 3.76 g/kg body weight (also equivalent to crude drug dose of 12 g/kg body weight, Table S4). Blood samples were collected and treated as mentioned above in the PK study of ZJ extract.
PK parameters of the 12 alkaloids including AUC0→t, AUC0→∞, mean retention time (MRT0→t, MRT0→∞), and elimination half-life (t1/2) were calculated with non-compartmental method by DAS 2.0 software (Mathematical Pharmacology Professional Committee of China, Shanghai, China). Maximum plasma drug concentration (Cmax) and time to reach the maximum plasma drug concentration (Tmax) were observed directly from the detected C–T data. The results were expressed as arithmetic mean ± standard deviation (SD).

[2] = Dose modified systemic exposure (AUC0→∞/D, Cmax/D)
Protocol: Because the alkaloids content in ZJ and FZJ were no longer linear with the proportion of CR and EF after extraction process, AUC0→∞/D (ratio of AUC0→∞ and dose) and Cmax/D (ratio of Cmax and dose) were calculated to estimate the dose modified systemic exposure levels of the 12 alkaloids (Table 3). […] Physicochemical properties of these alkaloids had been calculated in silico to predict their human colon adenocarcinoma cell (Caco-2) permeability according to the three-property based rule (3PRule). Polar surface area (PSA), logarithm of the n-octanol/water distribution coefficient (LogD), molecular weight (MW), hydrogen bond donors (HBD), hydrogen bond acceptors (HBA), number of free rotatable bonds (NRB) and molar solubility (S) of the alkaloids were retrieved from SciFinder® (American Chemical Society).

[3] = Stability of analytes in rat plasma under storage conditions; type: physicochemical; conditions: n = 6; for Stability RE, 3 freeze-thaw cycles / Stability RE, 30 days at −20 °C: rat plasma; for Stability RE, processed samples' stability: room temperature 24 h
Protocol: The stabilities of analytes in plasma were assessed by analyzing the QC samples at three concentration levels under the following storage conditions: after three freeze (−20 °C)-thaw (room temperature) cycles; stored at −20 °C for 30 days, and comparing the results with those of freshly prepared QC samples. Stabilities of the processed samples at room temperature for 24 h were also assessed.

[4] = Two-compartment model fitting of C–T curves (DAS 2.0); type: in vivo, rat
Text: Double peaks in C–T curves were observed repeatedly in the PK study of ZJ and related TCM prescriptions, but explanations to the phenomenon were still ambiguous. Generally, possible reasons for the double peak phenomenon could be summarized as follows: (a) enterohepatic circulation; […] (c) irregular pattern of gastric emptying. […] Moreover, Tmax of the alkaloids after administration of ZJ extract were deferred from that of FZJ administration. […] It probably play a major role in the double peak phenomenon, since the GI motility can affect the drug absorption.

SMILES | AUC(0-t) ([1]; 3.38 g/kg, oral ZJ extract) [ng·h/mL] | AUC(0-inf) ([1]; 3.38 g/kg, oral ZJ extract) [ng·h/mL] | Cmax ([1]; 3.38 g/kg, oral ZJ extract) [ng/mL] | MRT last ([1]; 3.38 g/kg, oral ZJ extract) [h] | MRT inf ([1]; 3.38 g/kg, oral ZJ extract) [h] | half-life ([1]; 3.38 g/kg, oral ZJ extract) [h] | Tmax ([1]; 3.38 g/kg, oral ZJ extract) [h] | Tsec (time of the secondary peak in C–T curve) ([1]; oral ZJ extract) [min] | Csec (drug concentration of the secondary peak in C–T curve) ([1]; oral ZJ extract) [ng/mL] | AUC0→∞/D (ratio of AUC0→∞ and dose) ([2]; oral ZJ extract) | Cmax/D (ratio of Cmax and dose) ([2]; oral ZJ extract) | Stability RE, 3 freeze-thaw cycles ([3]; high QC concentration) [%] | Stability RE, 30 days at −20 °C ([3]; high QC concentration) [%] | Stability RE, 3 freeze-thaw cycles ([3]; low QC concentration) [%] | Stability RE, 30 days at −20 °C ([3]; low QC concentration) [%] | Stability RE, 3 freeze-thaw cycles ([3]; medium QC concentration) [%] | Stability RE, 30 days at −20 °C ([3]; medium QC concentration) [%] | Stability RE, processed samples' stability ([3]; high QC concentration) [%] | Stability RE, processed samples' stability ([3]; low QC concentration) [%] | Stability RE, processed samples' stability ([3]; medium QC concentration) [%] | also measured
O=c1c2c3c(ccc2cc2n1CCc1cc4c(cc1-2)OCO4)OCO3 [8-oxocoptisine] | 24.7 ± 3.9 | 27 ± 2.23 | 2.46 ± 1.17 | 10.1 | 13.5 | 8.93 ± 2.65 | 5 | 90 | 2.42 ± 0.89 | 44.44 | 3.98 | −12.48 | −14.51 | 6.73 | 6.72 | 7.48 | 9.66 | 10.05 | −3.71 | 10.68 | plasma concentrations at most time points ([1]; oral FZJ extract): below the LLOQ
COc1cc2c(cc1OC)-c1cc3ccc4c(c3c(=O)n1CC2)OCO4 [8-oxoepiberberine] | 14.3 ± 2.32 | 16.6 ± 3.22 | 2.38 ± 1.14 | 7.51 | 12.3 | 9.88 ± 4.57 | 1.5 | 300 | 1.85 ± 0.99 | 97.25 | 13.92 | −8.93 | −2.71 | −14.18 | −13.41 | 0.37 | 0.36 | −7.73 | −7.14 | 9.35 | plasma concentrations at most time points ([1]; oral FZJ extract): below the LLOQ
COc1cc2c(cc1OC)C(=O)NCC2 [corydaldine] | 45.1 ± 7.46 | 47.3 ± 7.36 | 10.3 ± 5.45 | 6.72 | 8.55 | 9.92 ± 2.06 | 1.5 | 300 | 9.03 ± 4.31 | 1688.21 | 369.29 | −2.29 | −2.68 | −1.98 | 15.65 | 3.89 | −11.86 | −10.59 | 13.85 | −6.31 | AUC(0-t) ([1]; 3.76 g/kg, oral FZJ extract): 2.86 ± 0.35 ng·h/mL; AUC(0-inf) ([1]; 3.76 g/kg, oral FZJ extract): 3.1 ± 0.46 ng·h/mL; Cmax ([1]; 3.76 g/kg, oral FZJ extract): 1.73 ± 0.58 ng/mL; MRT last ([1]; 3.76 g/kg, oral FZJ extract): 2.85 h; MRT inf ([1]; 3.76 g/kg, oral FZJ extract): 3.99 h; half-life ([1]; 3.76 g/kg, oral FZJ extract): 3.89 ± 1.29 h; Tmax ([1]; 3.76 g/kg, oral FZJ extract): 0.5 h; AIC (Akaike's information criterion method), two-compartment model fitting ([4]; oral FZJ extract): 3.947 ± 8.187; r^2 (correlation coefficient method), two-compartment model fitting ([4]; oral FZJ extract): 0.805 ± 0.066; AIC (Akaike's information criterion method), two-compartment model fitting ([4]; oral ZJ extract): 85.431 ± 9.718; r^2 (correlation coefficient method), two-compartment model fitting ([4]; oral ZJ extract): 0.243 ± 0.267; AUC0→∞/D (ratio of AUC0→∞ and dose) ([2]; oral FZJ extract): 310.00; Cmax/D (ratio of Cmax and dose) ([2]; oral FZJ extract): 173.00
